Measurements published in BindingDB's records for doi:10.1016/0960-894X(95)00250-W (1995).

Target: Receptor-type tyrosine-protein phosphatase C (Homo sapiens) (UniProt P08575)
Assay: In vitro inhibitory activity against recombinant CD45 protein tyrosine phosphatase

Receptor-type tyrosine-protein phosphatase C (Homo sapiens), sequence (P08575 whole entry, looked up): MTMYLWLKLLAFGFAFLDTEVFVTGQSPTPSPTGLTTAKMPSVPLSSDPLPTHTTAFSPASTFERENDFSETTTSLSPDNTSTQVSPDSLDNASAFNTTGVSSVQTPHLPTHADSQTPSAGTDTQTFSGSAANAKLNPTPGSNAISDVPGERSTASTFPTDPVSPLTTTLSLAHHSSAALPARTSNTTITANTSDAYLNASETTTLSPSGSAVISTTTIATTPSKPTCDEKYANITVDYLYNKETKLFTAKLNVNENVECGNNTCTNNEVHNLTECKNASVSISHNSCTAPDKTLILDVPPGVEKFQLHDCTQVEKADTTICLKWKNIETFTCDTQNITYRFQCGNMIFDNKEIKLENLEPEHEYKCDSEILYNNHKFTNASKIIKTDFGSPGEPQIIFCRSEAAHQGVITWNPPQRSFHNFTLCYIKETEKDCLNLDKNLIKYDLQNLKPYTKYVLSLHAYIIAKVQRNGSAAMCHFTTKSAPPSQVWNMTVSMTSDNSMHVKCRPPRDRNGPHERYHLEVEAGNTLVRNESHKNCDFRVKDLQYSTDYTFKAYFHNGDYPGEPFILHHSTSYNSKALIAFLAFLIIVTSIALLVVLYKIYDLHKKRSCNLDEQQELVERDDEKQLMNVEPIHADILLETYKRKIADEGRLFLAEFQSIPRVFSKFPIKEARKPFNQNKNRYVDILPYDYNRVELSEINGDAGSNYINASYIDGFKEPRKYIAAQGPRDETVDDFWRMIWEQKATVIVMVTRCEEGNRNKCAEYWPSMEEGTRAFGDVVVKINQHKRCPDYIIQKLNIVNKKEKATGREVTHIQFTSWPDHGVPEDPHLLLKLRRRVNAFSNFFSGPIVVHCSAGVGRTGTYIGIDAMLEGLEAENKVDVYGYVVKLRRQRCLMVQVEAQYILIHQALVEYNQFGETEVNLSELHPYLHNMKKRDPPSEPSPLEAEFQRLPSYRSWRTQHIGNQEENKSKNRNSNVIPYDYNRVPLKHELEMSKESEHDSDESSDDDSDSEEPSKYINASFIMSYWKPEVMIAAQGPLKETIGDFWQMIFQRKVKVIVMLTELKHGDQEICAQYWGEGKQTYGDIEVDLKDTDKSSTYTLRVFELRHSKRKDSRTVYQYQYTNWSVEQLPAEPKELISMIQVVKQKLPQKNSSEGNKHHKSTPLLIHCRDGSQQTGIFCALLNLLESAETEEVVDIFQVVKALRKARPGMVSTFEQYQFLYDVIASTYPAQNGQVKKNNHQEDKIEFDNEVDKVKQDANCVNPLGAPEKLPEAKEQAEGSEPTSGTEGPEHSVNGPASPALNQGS

Row | Compound | IC50 [µM]
1 | c1ccc2c(c1)C[C@H]1NCCc3cc4c(c-2c31)OCO4 [(-)-anonaine] | 17
2 | COc1cc2c3c(c1OC)-c1ccccc1C[C@@H]3NCC2 [(S)-1,2-Dimethoxy-5,6,6a,7-tetrahydro-4H-dibenzo[de,g]quinoline] | 5.3
3 | O=C1c2ccccc2-c2c3c(cc4ccnc1c24)OCO3 [Liriodenine] | 182
4 | COc1cc2c(cc1OC)-c1c(OC)c(OC)cc3c1[C@H](C2)N(C)CC3 | 88
5 | CN1CCc2cc3c(c4c2C1Cc1ccccc1-4)OCO3 (stereo not given) [7-Methyl-6,7,7a,8-tetrahydro-5H-benzo[g][1,3]dioxolo[4',5':4,5]benzo[1,2,3-de]quinoline] | 107
